{"source": "patent US20230225324A1", "about": "“Synergistic Pesticidal Composition Against Sucking Pests Complex” (priority 2020, published 2023)", "key": {"White fly": {"tested_on": "White fly", "assay": "Synergistic insecticidal effect of the combination, mortality of White fly (Table 2)", "assay_type": "in vivo", "source_text": "(§1) Evaluation of the synergistic insecticidal effect of the composition comprising Diafenthiuron, Pyriproxyfen and an insecticide Dinotefuran can be established by using any synergistic insecticidal composition prepared by the process described in the above examples. For these evaluations one or more of the synergistic insecticidal compositions prepared in the examples are used here.\n(§2) Synergism can be calculated by using the Colby's method i.e. the expected (or predicted) response of the combination is calculated by taking the product of the observed response for each individual component of the combination when applied alone divided by 100 and subtracting this value from the sum of observed response for each component when applied alone. Synergism of the combination is then determined by comparing the observed response of the combination to the expected (or predicted) response as calculated from the observed response of each individual component alone. If the observed response of the combination is greater than the expected (or predicted) response then the combination is said to be synergistic and falls within the definition of synergistic effect. (Colby, S. R., Weeds, 1967(15), p. 20-22)."}, "Jassids": {"tested_on": "Jassids", "assay": "Synergistic insecticidal effect of the combination, mortality of Jassids (Table 3)", "assay_type": "in vivo", "source_text": "as §1, §2"}}, "data": [{"smiles": "CC(COc1ccc(Oc2ccccc2)cc1)Oc1ccccn1", "note": "(racemic) [Pyriproxyfen, 4-phenoxyphenyl (RS)-2-(2-pyridyloxy)propyl ether]", "values": [{"measurement": "Observed Mortality %", "setting": "White fly; Pyriproxyfen 72 ppm", "result": 30.70, "unit": "%"}, {"measurement": "Observed Mortality %", "setting": "White fly; Pyriproxyfen 96 ppm", "result": 38.10, "unit": "%"}, {"measurement": "Observed Mortality %", "setting": "White fly; Pyriproxyfen 120 ppm", "result": 43.70, "unit": "%"}, {"measurement": "Observed Mortality %", "setting": "White fly; Pyriproxyfen 144 ppm", "result": 46.60, "unit": "%"}, {"measurement": "Observed Mortality %", "setting": "Jassids; Pyriproxyfen 72 ppm", "result": 21.70, "unit": "%"}, {"measurement": "Observed Mortality %", "setting": "Jassids; Pyriproxyfen 96 ppm", "result": 29.20, "unit": "%"}, {"measurement": "Observed Mortality %", "setting": "Jassids; Pyriproxyfen 120 ppm", "result": 35.50, "unit": "%"}, {"measurement": "Observed Mortality %", "setting": "Jassids; Pyriproxyfen 144 ppm", "result": 37.90, "unit": "%"}]}, {"smiles": "CC(C)c1cc(Oc2ccccc2)cc(C(C)C)c1NC(=S)NC(C)(C)C", "note": "[Diafenthiuron, 1-tert-butyl-3-(2,6-di-isopropyl-4-phenoxyphenyl)thiourea]", "values": [{"measurement": "Observed Mortality %", "setting": "White fly; Diafenthiuron 120 ppm", "result": 38.40, "unit": "%"}, {"measurement": "Observed Mortality %", "setting": "White fly; Diafenthiuron 240 ppm", "result": 48.50, "unit": "%"}, {"measurement": "Observed Mortality %", "setting": "White fly; Diafenthiuron 360 ppm", "result": 57.30, "unit": "%"}, {"measurement": "Observed Mortality %", "setting": "White fly; Diafenthiuron 480 ppm", "result": 61.80, "unit": "%"}, {"measurement": "Observed Mortality %", "setting": "Jassids; Diafenthiuron 120 ppm", "result": 28.90, "unit": "%"}, {"measurement": "Observed Mortality %", "setting": "Jassids; Diafenthiuron 240 ppm", "result": 42.00, "unit": "%"}, {"measurement": "Observed Mortality %", "setting": "Jassids; Diafenthiuron 360 ppm", "result": 48.50, "unit": "%"}, {"measurement": "Observed Mortality %", "setting": "Jassids; Diafenthiuron 480 ppm", "result": 57.40, "unit": "%"}]}, {"smiles": "CN/C(=N/CC1CCOC1)N[N+](=O)[O-]", "note": "(stereo not drawn) [Dinotefuran, 2-methyl-1-nitro-3-[(tetrahydro-3-furanyl)methyl]guanidine]", "values": [{"measurement": "Observed Mortality %", "setting": "White fly; Dinotefuran 45 ppm", "result": 35.10, "unit": "%"}, {"measurement": "Observed Mortality %", "setting": "White fly; Dinotefuran 60 ppm", "result": 45.50, "unit": "%"}, {"measurement": "Observed Mortality %", "setting": "White fly; Dinotefuran 75 ppm", "result": 52.00, "unit": "%"}, {"measurement": "Observed Mortality %", "setting": "White fly; Dinotefuran 90 ppm", "result": 61.40, "unit": "%"}, {"measurement": "Observed Mortality %", "setting": "Jassids; Dinotefuran 45 ppm", "result": 65.60, "unit": "%"}, {"measurement": "Observed Mortality %", "setting": "Jassids; Dinotefuran 60 ppm", "result": 73.40, "unit": "%"}, {"measurement": "Observed Mortality %", "setting": "Jassids; Dinotefuran 75 ppm", "result": 79.00, "unit": "%"}, {"measurement": "Observed Mortality %", "setting": "Jassids; Dinotefuran 90 ppm", "result": 83.80, "unit": "%"}]}]}
